# Measurements from US10030047B2 (Hoffmann-La Roche Inc., priority 2015, dated 2018).
# Tested on: A. baumannii strain ATCC19606
# Assay: Minimum inhibitory concentration (MIC) determination, microbroth dilution (CLSI)
# Type: cell-based
# Details: Acinetobacter baumannii; A. baumannii ATCC19606; CAMHB; read after 20 hours; >=80% growth inhibition; read-out: ATCC19606 MIC
# How it was run: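 After 20 h at 35±2 °C, MIC taken visually and by OD 600 nm as the lowest concentration giving ≥80% growth inhibition. Bacteria (~5×10^5 CFU/ml) were tested per CLSI microbroth dilution against twofold serial compound dilutions in cation-adjusted Mueller Hinton broth.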
row,Structure (SMILES),MIC
1,"CN1C(=O)[C@H](CCCCN)NC(=O)[C@H](CCCN)NCc2cccnc2Sc2c(Cl)ccc(C(F)(F)F)c2CNC(=O)[C@@H]1Cc1c[nH]c2ccc(F)cc12 [Example 131, (11S,14S,17S)-14-(4-Amino-butyl)-11-(3-amino-propyl)-25-chloro-17-(5-fluoro-1H-indol-3-ylmethyl)-16-methyl-22-trifluoromethyl-2-thia-4,10,13,16,19-pentaaza-tricyclo[19.4.0.0*3,8*]pentacosa-1(25),3,5,7,21,23-hexaene-12,15,18-trione]",0.25 µg/mL
2,"COc1cc(-c2cc(Cl)c3c(c2)CNC(=O)[C@H](Cc2c[nH]c4ccccc24)N(C)C(=O)[C@H](CCCCN)NC(=O)[C@H](CCC(N)=O)NCc2cccnc2S3)ccn1 [Example 134, 3-[(11S,14S,17S)-14-(4-Amino-butyl)-25-chloro-17-(1H-indol-3-ylmethyl)-23-(2-methoxy-pyridin-4-yl)-16-methyl-12,15,18-trioxo-2-thia-4,10,13,16,19-pentaaza-tricyclo[19.4.0.0*3,8*]pentacosa-1 (25),3(8),4,6,21,23 exaen-11-yl]-propionamde]",2 µg/mL
3,"CN1C(=O)[C@H](CCCCN)NC(=O)[C@H](CCC(N)=O)NCc2cccnc2Sc2c(Cl)cc(N3CCOCC3)cc2CNC(=O)[C@@H]1Cc1c[nH]c2ccccc12 [Example 137, 3-[(11S,14S,17S)-14-(4-Amino-butyl)-25-chloro-17-(1H-indol-3-ylmethyl)-16-methyl-23-morpholin-4-yl-12,15,18-trioxo-2-thia-4,10,13,16,19-pentaaza-tricyclo[19.4.0.0*3,8*]pentacosa-1(25),3(8),4,6,21,23-hexaen-11-yl]-propionamide]",32 µg/mL
4,"CN1C(=O)[C@H](CCCCN)NC(=O)[C@H](CCCN)NCc2cccnc2Sc2c(Cl)cc(C3=CCOCC3)cc2CNC(=O)[C@@H]1Cc1c[nH]c2ccccc12 [Example 138, (11S,14S,17S)-14-(4-Amino-butyl)-11-(3-amino-propyl)-25-chloro-23-(3,6-dihydro-2H-pyran-4-yl)-17-(1H-indol-3-ylmethyl)-16-methyl-2-thia-4,10,13,16,19-pentaaza-tricyclo[19.4.0.0*3,8*]pentacosa-1(25),3(8),4,6,21,23-hexaene-12,15,18-trione]",0.5 µg/mL
5,"CN1C(=O)[C@H](CCCCN)NC(=O)[C@H](CCCNC(=O)OCc2ccccc2)NCc2cccnc2Sc2c(Cl)ccc(Cl)c2CNC(=O)[C@@H]1Cc1c[nH]c2ccccc12 [Example 139, {3-[(11S,14S,17S)-14-(4-Amino-butyl)-22,25-dichloro-17-(1H-indol-3-ylmethyl)-16-methyl-12,15,18-trioxo-2-thia-4,10,13,16,19-pentaaza-tricyclo[19.4.0.0*3,8*]pentacosa-1(25),3(8),4,6,21,23-hexaen-11-yl]-propyarbamic acid benzyl ester]",2 µg/mL
6,"CN1C(=O)[C@H](CCCCN)NC(=O)[C@H](CCCN)NCc2ccccc2Sc2c(Cl)cc(-c3ccn(C)n3)cc2CNC(=O)[C@@H]1Cc1c[nH]c2ccccc12 [Example 144, (12S,15S,18S)-15-(4-Amino-butyl)-18-(3-amino-propyl)-4-chloro-12-(1H-indol-3-ylmethyl)-13-methyl-6-(1-methyl-1H-pyrazol-3-yl)-2-thia-10,13,16,19-tetraaza-tricyclo[19.4.0.0*3,8*]pentacosa-1(25),3,5,7,21,23-hexaene-11,14,17-trione]",1 µg/mL
7,"Cc1cc(-c2cc(Cl)c3c(c2)CNC(=O)[C@H](Cc2c[nH]c4ccccc24)N(C)C(=O)[C@H](CCCCN)NC(=O)[C@H](CCC(N)=O)NCc2cccnc2S3)ccn1 [Example 145, 3-[(11S,14S,17S)-14-(4-Amino-butyl)-25-chloro-17-(1H-indol-3-ylmethyl)-16-methyl-23-(2-methyl-pyridin-4-yl)-12,15,18-trioxo-2-thia-4,10,13,16,19-pentaaza-tricyclo[19.4.0.0*3,8*]pentacosa-1(25),3(8),4,6,21,23-hexaen-1l-yl]-propionamide]",4 µg/mL
8,"CN1C(=O)[C@H](CCCCN)NC(=O)[C@H](CCCN)NCc2cccnc2Sc2c(Cl)cc(-c3cnccn3)cc2CNC(=O)[C@@H]1Cc1c[nH]c2ccccc12 [Example 146, (11S,14S,17S)-14-(4-Amino-butyl)-11-(3-amino-propyl)-25-chloro-17-(1H-indol-3-ylmethyl)-16-methyl-23-pyrazin-2-yl-2-thia-4,10,13,16,19-pentaaza-tricyclo[19.4.0.0*3,8*]pentacosa-1(25),3(8),4,6,21,23-hexaene-12,15,18-trione]",1 µg/mL
9,"CN1C(=O)[C@H](CCCCN)NC(=O)[C@H](CCCN)NCc2cccnc2Sc2c(Cl)ccc(N3CCOCC3)c2CNC(=O)[C@@H]1Cc1c[nH]c2ccccc12 [Example 147, (11S,14S,17S)-14-(4-Amino-butyl)-11-(3-amino-propyl)-25-chloro-17-(1H-indol-3-ylmethyl)-16-methyl-22-morpholin-4-yl-2-thia-4,10,13,16,19-pentaaza-tricyclo[19.4.0.0*3,8*]pentacosa-1(25),3(8),4,6,21,23-hexaene-12,15,18-trione]",0.12 µg/mL
10,"CN1C(=O)[C@H](CCCCN)NC(=O)[C@H](CCCN)NCc2cccnc2Sc2c(Cl)cc(-c3ccnnc3)cc2CNC(=O)[C@@H]1Cc1c[nH]c2ccccc12 [Example 148, (11S,14S,17S)-14-(4-Amino-butyl)-11-(3-amino-propyl)-25-chloro-17-(1H-indol-3-ylmethyl)-16-methyl-23-pyridazin-4-yl-2-thia-4,10,13,16,19-pentaaza-tricyclo[19.4.0.0*3,8*]pentacosa-1(25),3(8),4,6,21,23-hexaene-12,15,18-trione]",8 µg/mL
11,CN1C(=O)[C@H](CCCCN)NC(=O)[C@H](CCCN)NCc2cccnc2Sc2c(Cl)cc(-c3ccccc3)cc2CNC(=O)[C@@H]1Cc1c[nH]c2ccccc12 [Example 149],1 µg/mL
12,"CN1C(=O)[C@H](CCCCN)NC(=O)[C@H](CCCN)NCc2cccnc2Sc2c(Cl)cc(-c3ccccn3)cc2CNC(=O)[C@@H]1Cc1c[nH]c2ccccc12 [Example 150, (11S,14S,17S)-14-(4-Amino-butyl)-11-(3-amino-propyl)-25-chloro-17-(1H-indol-3-ylmethyl)-16-methyl-23-pyridin-2-yl-2-thia-4,10,13,16,19-pentaaza-tricyclo[19.4.0.0*3,8*]pentacosa-1(25),3(8),4,6,21,23-hexaene-12,15-18-trione]",1 µg/mL
13,"CN1C(=O)[C@H](CCCCN)NC(=O)[C@H](CCCN)NCc2ccccc2Sc2c(Cl)cc(-c3cn(C)cn3)cc2CNC(=O)[C@@H]1Cc1c[nH]c2ccccc12 [Example 154, (12S,15S,18S)-15-(4-Amino-butyl)-18-(3-amino-propyl)-4-chloro-12-(1H-indol-3-ylmethyl)-13-methyl-6-(1-methyl-1H-imidazol-4-yl)-2-thia-10,13,16,19-tetraaza-tricyclo[19.4.0.0*3,8*]pentacosa-1(25),3,5,7,21,23-hexaene-11,14,17-trione]",2 µg/mL
14,"CN1C(=O)[C@H](CCCCN)NC(=O)[C@H](CCCN)NCc2cnccc2Sc2c(Cl)cc(C(F)(F)F)cc2CNC(=O)[C@@H]1Cc1c[nH]c2ccccc12 [Example 156, (7S,10S,13S)— 13-((1H-Indol-3-yl)methyl)-10-(4-aminobutyl)-7-(3-aminopropyl)-20-chloro-12-methyl-18-(trifluoromethyl)-6,7,9,10,12,13,15,16-octahydrobenzo[b]pyrido[3,4-p][1,5,8,11,14]thiatetraazacycloheptadecine-8,11,14(5H)-trione]",1 µg/mL
15,"CN1C(=O)[C@H](CCCCN)NC(=O)[C@H](CCCN)NCc2cccnc2Sc2c(Cl)cncc2CNC(=O)[C@@H]1Cc1c[nH]c2ccccc12 [Example 157, (7S,10S,13S)— 13-((1H-Indol-3-yl)methyl)-10-(4-aminobutyl)-7-(3-aminopropyl)-20-chloro-12-methyl-6,7,9,10,12,13,15,16-octahydrodipyrido[2,3-b:3′,4′-p][1,5,8,11,14]thiatetraazacycloheptadecine-8,11,14(5H)-trione]",16 µg/mL
16,"CN1C(=O)[C@H](CCCN)NC(=O)[C@H](CCC(N)=O)NCc2cccnc2Sc2c(Cl)cc(Cl)cc2CNC(=O)[C@@H]1Cc1c[nH]c2ccccc12 [Example 160, 3-[(11S,14S,17S)-14-(3-Amino-propyl)-23,25-dichloro-17-(1H-indol-3-ylmethyl)-16-methyl-12,15,18-trioxo-2-thia-4,10,13,16,19-pentaaza-tricyclo[19.4.0.0*3,8*]pentacosa-1(25),3(8),4,6,21,23-hexaen-11-yl]-propionamide]",4 µg/mL
17,"CN1C(=O)[C@H](CCCCN)NC(=O)[C@H](CCCN)NCc2cccnc2Sc2c(Cl)cc(-c3ccnc(N4CCOCC4)c3)cc2CNC(=O)[C@@H]1Cc1c[nH]c2ccccc12 [Example 162, (11S,14S,17S)-14-(4-Amino-butyl)-11-(3-amino-propyl)-25-chloro-17-(1H-indol-3-ylmethyl)-16-methyl-23-(2-morpholin-4-yl-pyridin-4-yl)-2-thia-4,10,13,16,19-pentaaza-tricyclo[19.4.0.0*3,8*]pentacosa-1(25),3(8),4,6,21,23-hexaene-12,15,18-trione]",0.5 µg/mL
18,"CN1C(=O)[C@H](CCCCN)NC(=O)[C@H](CCC(N)=O)NCc2cccnc2Sc2c(Cl)cc(-c3ccccn3)cc2CNC(=O)[C@@H]1Cc1c[nH]c2ccccc12 [Example 163, 3-[(11S,14S,17S)-14-(4-Amino-butyl)-25-chloro-17-(1H-indol-3-ylmethyl)-16-methyl-12,15,18-trioxo-23-pyridin-2-yl-2-thia-4,10,13,16,19-pentaaza-tricyclo[19.4.0.0*3,8*]pentacosa-1(25),3(8),4,6,21,23-hexaen-1-yl]-propionamide]",4 µg/mL
19,"CN1C(=O)[C@H](CCCCN)NC(=O)[C@H](CCCN)NCc2cccnc2Sc2c(Cl)cc(-c3ccnc(Cl)c3)cc2CNC(=O)[C@@H]1Cc1c[nH]c2ccccc12 [Example 164, (11S,14S,17S)-14-(4-Amino-butyl)-11-(3-amino-propyl)-25-chloro-23-(2-chloro-pyridin-4-yl)-17-(1H-indol-3-ylmethyl)-16-methyl-2-thia-4,10,13,16,19-pentaaza-tricyclo[19.4.0.0*3,8*]pentacosa-1(21),3,5,7,22,24-hexaene-12,15,18-trione]",0.25 µg/mL
